In PubChem BioAssay AID504487 (Sanford-Burnham Center for Chemical Genomics, 2011) one finds IC50 data, which are given here for eight compounds.

The source made the active and inactive calls.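 The calls were made as follows: active = IC50 at or below 20 µM; inactive = the rest.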

The subject of this assay is 697 B-cell NF-kB luciferase reporter, PMA/ionomycin, 16 h. Briefly: NF-kB reporter suppression in 697 B cells – T-cell screen hits, luminescence, SAR follow-up (AID 504487).
With `CCCC(=O)NC(c1ccc(C)cc1)c1ccc2cccnc2c1O` (stereo not drawn), the IC50 (commonly the concentration at which inhibition is half-maximal) is > 79 µM (inactive).

On to `COc1ccc(C(NC(C)=O)c2ccc3cccnc3c2O)cc1` (stereo not drawn), for which the IC50 is > 79 µM (inactive).

For `COc1cccc(C(=O)Nc2ccc3[nH]c(-c4cccc(OC)c4)cc(=O)c3c2)c1`, the IC50 is > 79 µM (inactive).

Take `CCCC(=O)NC(c1ccc(Cl)cc1)c1ccc2cccnc2c1O` (stereo not drawn): the IC50 was > 79 µM (inactive).

Regarding `CCCC(=O)NC(c1ccc(OC)cc1)c1ccc2cccnc2c1O` (stereo not drawn), the IC50 is > 79 µM (inactive).

In the case of `CCCC(=O)NC(c1ccccc1)c1ccc2cccnc2c1O` (stereo not drawn), the IC50 is > 79 µM (inactive).

With `COc1ccc(C(NC(=O)c2ccccc2)c2ccc3cccnc3c2O)cc1` (stereo not drawn), the IC50 was > 79 µM (inactive).

Take `CCCC(=O)NC(c1ccccc1OC)c1ccc2cccnc2c1O` (stereo not drawn): the IC50 was > 79 µM (inactive).
